Data reported in patent US12077503B2, “Substituted cyclic amides and their use as herbicides” (FMC CORPORATION, priority 2015, dated 2024).

What was measured:
Experiment in all cases: Test C preemergence
Type in all cases: in vivo
[1] = test system: Galium (catchweed bedstraw, Galium aparine); conditions: scale 0 to 100, 0 no effect, 100 complete control
In short: (§1)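 Scores of 0 to 100 reflect visual comparison with control plants, where 0 means no effect and 100 complete control, made 13 to 15 d after treatment. Application was preemergence to seeds in loam-sand soil or postemergence to plants 2 to 18 cm tall in peat-based mix, using a surfactant-containing solvent formulation.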

[2] = test system: barnyardgrass (Echinochloa crus-galli); conditions: scale 0 to 100, 0 no effect, 100 complete control
In short: as §1

[3] = test system: blackgrass (Alopecurus myosuroides); conditions: scale 0 to 100, 0 no effect, 100 complete control
In short: as §1

corn (Zea mays) = conditions: scale 0 to 100, 0 no effect, 100 complete control
In short: as §1

[4] = test system: crabgrass, large (large crabgrass, Digitaria sanguinalis); conditions: scale 0 to 100, 0 no effect, 100 complete control
In short: as §1

[5] = test system: johnsongrass (Sorghum halepense); conditions: scale 0 to 100, 0 no effect, 100 complete control
In short: as §1

[6] = test system: lambsquarters (Chenopodium album); conditions: scale 0 to 100, 0 no effect, 100 complete control
In short: as §1

[7] = test system: morningglory (Ipomoea coccinea); conditions: scale 0 to 100, 0 no effect, 100 complete control
In short: as §1

[8] = test system: nutsedge, yellow (yellow nutsedge, Cyperus esculentus); conditions: scale 0 to 100, 0 no effect, 100 complete control
In short: as §1

[9] = test system: oilseed rape (Brassica napus); conditions: scale 0 to 100, 0 no effect, 100 complete control
In short: as §1

[10] = test system: pigweed (Amaranthus retroflexus); conditions: scale 0 to 100, 0 no effect, 100 complete control
In short: as §1

[11] = test system: ryegrass, Italian (Italian ryegrass, Lolium multiflorum); conditions: scale 0 to 100, 0 no effect, 100 complete control
In short: as §1

soybean (Glycine max) = conditions: 125 g ai/ha, scale 0 to 100, 0 no effect, 100 complete control
In short: as §1

[12] = test system: velvetleaf (Abutilon theophrasti); conditions: scale 0 to 100, 0 no effect, 100 complete control
In short: as §1

[13] = test system: waterhemp (common waterhemp, Amaranthus rudis); conditions: scale 0 to 100, 0 no effect, 100 complete control
In short: as §1

[14] = test system: wheat (winter wheat, Triticum aestivum); conditions: scale 0 to 100, 0 no effect, 100 complete control
In short: as §1

Compound: CN1CC(c2cccc(OC(F)(F)C(F)F)c2)C(C(=O)Nc2ccccc2C(F)(F)F)C1=O (stereo not drawn) [Compound 431]
- Plant response rating, Galium ([1]; 31 g ai/ha): 95
- Plant response rating, Galium ([1]; 62 g ai/ha): 90
- Plant response rating, Galium ([1]; 125 g ai/ha): 100
- Plant response rating, Galium ([1]; 250 g ai/ha): 90
- Plant response rating, Barnyardgrass ([2]; 31 g ai/ha): 90
- Plant response rating, Barnyardgrass ([2]; 62 g ai/ha): 95
- Plant response rating, Barnyardgrass ([2]; 125 g ai/ha): 95
- Plant response rating, Barnyardgrass ([2]; 250 g ai/ha): 98
- Plant response rating, Blackgrass ([3]; 31 g ai/ha): 60
- Plant response rating, Blackgrass ([3]; 62 g ai/ha): 85
- Plant response rating, Blackgrass ([3]; 125 g ai/ha): 90
- Plant response rating, Blackgrass ([3]; 250 g ai/ha): 98
- Plant response rating, Corn (corn (Zea mays); 31 g ai/ha): 0
- Plant response rating, Corn (corn (Zea mays); 62 g ai/ha): 35
- Plant response rating, Corn (corn (Zea mays); 125 g ai/ha): 50
- Plant response rating, Corn (corn (Zea mays); 250 g ai/ha): 65
- Plant response rating, Crabgrass, Large ([4]; 31 g ai/ha): 98
- Plant response rating, Crabgrass, Large ([4]; 62 g ai/ha): 100
- Plant response rating, Crabgrass, Large ([4]; 125 g ai/ha): 100
- Plant response rating, Crabgrass, Large ([4]; 250 g ai/ha): 100
- Plant response rating, Johnsongrass ([5]; 31 g ai/ha): 70
- Plant response rating, Johnsongrass ([5]; 62 g ai/ha): 75
- Plant response rating, Johnsongrass ([5]; 125 g ai/ha): 85
- Plant response rating, Johnsongrass ([5]; 250 g ai/ha): 90
- Plant response rating, Lambsquarters ([6]; 31 g ai/ha): 10
- Plant response rating, Lambsquarters ([6]; 62 g ai/ha): 40
- Plant response rating, Lambsquarters ([6]; 125 g ai/ha): 50
- Plant response rating, Lambsquarters ([6]; 250 g ai/ha): 65
- Plant response rating, Morningglory ([7]; 31 g ai/ha): 0
- Plant response rating, Morningglory ([7]; 62 g ai/ha): 10
- Plant response rating, Morningglory ([7]; 125 g ai/ha): 10
- Plant response rating, Morningglory ([7]; 250 g ai/ha): 10
- Plant response rating, Nutsedge, Yellow ([8]; 31 g ai/ha): 0
- Plant response rating, Nutsedge, Yellow ([8]; 62 g ai/ha): 0
- Plant response rating, Nutsedge, Yellow ([8]; 125 g ai/ha): 0
- Plant response rating, Nutsedge, Yellow ([8]; 250 g ai/ha): 0
- Plant response rating, Oilseed Rape ([9]; 31 g ai/ha): 10
- Plant response rating, Oilseed Rape ([9]; 62 g ai/ha): 60
- Plant response rating, Oilseed Rape ([9]; 125 g ai/ha): 85
- Plant response rating, Oilseed Rape ([9]; 250 g ai/ha): 90
- Plant response rating, Pigweed ([10]; 31 g ai/ha): 40
- Plant response rating, Pigweed ([10]; 62 g ai/ha): 60
- Plant response rating, Pigweed ([10]; 125 g ai/ha): 75
- Plant response rating, Pigweed ([10]; 250 g ai/ha): 85
- Plant response rating, Ryegrass, Italian ([11]; 62 g ai/ha): 10
- Plant response rating, Ryegrass, Italian ([11]; 125 g ai/ha): 15
- Plant response rating, Ryegrass, Italian ([11]; 250 g ai/ha): 70
- Plant response rating, Soybean (soybean (Glycine max)): 0
- Plant response rating, Velvetleaf ([12]; 62 g ai/ha): 25
- Plant response rating, Velvetleaf ([12]; 125 g ai/ha): 40
- Plant response rating, Velvetleaf ([12]; 250 g ai/ha): 30
- Plant response rating, Waterhemp ([13]; 62 g ai/ha): 75
- Plant response rating, Waterhemp ([13]; 125 g ai/ha): 85
- Plant response rating, Waterhemp ([13]; 250 g ai/ha): 90
- Plant response rating, Wheat ([14]; 62 g ai/ha): 5
- Plant response rating, Wheat ([14]; 125 g ai/ha): 70
- Plant response rating, Wheat ([14]; 250 g ai/ha): 90
